Structures are written as SMILES.

In one test the test system is HIV-1 luciferase reporter virus (ADA-Luc-FL, YU-2-Luc-FL, HxB-Luc-FL) in U87-CD4-CCR5 cells. The experiment in a line: Luciferase Replication Assay (HIV replication). It is filed as cell-based. The note with it: Human immunodeficiency virus 1, U87/CD4/CCR5, 72 h, read-out: HIV Replication (Luciferase) IC50 nM, U87-CD4-CCR5 cells, replication-competent luciferase reporter virus, cultures incubated 3 days. The method, then:
Luciferase Replication Assay:
Plasmids encoding the full length genome of HIV-1 pNL-4-Luc with the gp 120 V-3 loop replaced by the Bgl II fragment of HIV-1 ADA, YU-2 or HxB (ADA-Luc-FL, YU-2-Luc-FL and HxB-Luc-FL) are obtained from Dr. Susan Pontow (Washington University, St. Louis Mo.). Replication-competent luciferase reporter virus stocks are generated by transfection of plasmids into 293T cells using Superfect (Qiagen) or Mirus transfection reagents. Viral stocks are collected 48 hours following transfection and titered for luciferase production on U-87-CCR5 or CXCR4 cells. U87-CD4-CCR5 cells (10^4/ well) are plated in 96-well cell culture plates and incubated overnight. Media is removed and replaced with 50 μl of fresh culture media (DMEM, 10% FCS) and 50 μl of compound diluted in culture medium. Cells are incubated with compound at 37° C. for 1 hour. The resultant supernatant is removed and replaced with 20 μl of media containing compound and infected with an equal volume of diluted or undiluted virus stock at 37° C. for 3-4 hours. The cells are washed once with DMEM, and 200 μl of media containing compound is added. The cultures are incubated for 3 days, the cells lysed in luciferase lysis buffer (Promega, Madison, Wis.) and transferred to Immulon plates (Dynex Technologies, Chantilly Va.). An equal volume of luciferase substrate (Promega, Madison Wis.) is added to lysates and the plates read immediately in a Wallac Luminometer. Fifty and ninety percent inhibitory concentrations are determined using GraphPad PRISM software.
Consider `Cc1ncnc(C)c1C(=O)N1CCC(C)(N2CCN(C(Cc3ccccc3)C3CCCN(S(=O)(=O)C4CC4)C3)[C@@H](C)C2)CC1` (mixture of isomers) [Example 1], for which the IC50 was 2 nM.

As to `COc1ccc(CN2CCCC(C(Cc3ccccc3)N3CCN(C4(C)CCN(C(=O)c5c(C)ncnc5C)CC4)C[C@@H]3C)C2)cc1` (mixture of isomers) [Example 2], the IC50 came to 25 nM.

As to `Cc1ncnc(C)c1C(=O)N1CCC(C)(N2CCN(C(Cc3ccccc3)C3CCCN(S(=O)(=O)c4cccc(Cl)c4)C3)[C@@H](C)C2)CC1` (mixture of isomers) [Example 3], the IC50 came out at 2 nM.

With `Cc1ncnc(C)c1C(=O)N1CCC(C)(N2CCN(C(Cc3ccccc3)C3CCCNC3)[C@@H](C)C2)CC1` (mixture of isomers) [Example 4], the IC50 is 4 nM.

Regarding `Cc1ncnc(C)c1C(=O)N1CCC(C)(N2CCN([C@@H](c3cccc(F)c3)C3CCN(S(=O)(=O)C4CC4)C3)[C@@H](C)C2)CC1` (mixture of isomers) [Example 11], the IC50 was determined as 0.3 nM.

`Cc1ncnc(C)c1C(=O)N1CCC(C)(N2CCN(C(c3ccccc3)C3CCCN(S(C)(=O)=O)C3)[C@@H](C)C2)CC1` (stereo partly shown) [Example 7]: the concentration for half-maximal inhibition (IC50) was determined as 0.5 nM.

Regarding `COc1ccc(CN2CCCC([C@H](c3ccccc3)N3CCN(C4(C)CCN(C(=O)c5c(C)ncnc5C)CC4)C[C@@H]3C)C2)cc1` (stereo partly shown) [Example 8], the IC50 turned out to be 1.6 nM.

Turning to `Cc1ncnc(C)c1C(=O)N1CCC(C)(N2CCN([C@@H](c3ccccc3)C3CCCNC3)[C@@H](C)C2)CC1` (stereo partly shown) [Example 9], the IC50 amounted to 11 nM.

With `Cc1ncnc(C)c1C(=O)N1CCC(C)(N2CCN(C(CC3CCN(S(=O)(=O)C4CC4)CC3)c3cccc(F)c3)[C@@H](C)C2)CC1` (stereo partly shown) [Example 10], the IC50 worked out at 3 nM.

On to `Cc1ncnc(C)c1C(=O)N1CCC(C)(N2CCN([C@@H](c3cccc(F)c3)C3CN(S(=O)(=O)C4CC4)C3)[C@@H](C)C2)CC1` [Example 12], for which the half-maximal inhibitory concentration (IC50) was determined as 1 nM.

As to `Cc1ncnc(C)c1C(=O)N1CCC(C)(N2CCN([C@@H](c3cccc(F)c3)C3CN(S(=O)(=O)c4ccccc4)C3)[C@@H](C)C2)CC1` [Example 13], the IC50 is 0.7 nM.

For `Cc1ncnc(C)c1C(=O)N1CCC(C)(N2CCN([C@@H](c3cccc(F)c3)C3CN(S(C)(=O)=O)C3)[C@@H](C)C2)CC1` [Example 14], the IC50 was found to be 2 nM.

`Cc1ncnc(C)c1C(=O)N1CCC(C)(N2CCN([C@@H](c3cccc(F)c3)C3CN(C(=O)C4CC4)C3)[C@@H](C)C2)CC1` [Example 15]: the IC50 is 5 nM.

Regarding `Cc1ncnc(C)c1C(=O)N1CCC(C)(N2CCN([C@@H](Cc3ccccc3)C3CN(S(=O)(=O)C4CC4)C3)[C@@H](C)C2)CC1` [Example 16], the IC50 is 4 nM.

In the case of `Cc1ncnc(C)c1C(=O)N1CCC(C)(N2CCN([C@@H](Cc3ccccc3)C3CN(S(=O)(=O)c4ccccc4)C3)[C@@H](C)C2)CC1` [Example 17], the IC50 was determined as 0.4 nM.

Turning to `Cc1ncnc(C)c1C(=O)N1CCC(C)(N2CCN([C@@H](Cc3ccccc3)C3CN(S(C)(=O)=O)C3)[C@@H](C)C2)CC1` [Example 18], the IC50 was determined as 17 nM.

As to `Cc1ncnc(C)c1C(=O)N1CCC(C)(N2CCN([C@@H](Cc3ccccc3)C3CN(C(=O)C4CC4)C3)[C@@H](C)C2)CC1` [Example 19], the IC50 stood at 13 nM.

Still in this test, the particulars now being: read-out: HIV Replication (Luciferase) IC50 nM; U87-CD4-CCR5 cells, replication-competent luciferase reporter virus, cultures incubated 3 days.
On to `Cc1ncnc(C)c1C(=O)N1CCC(C)(N2CCN(C(c3ccccc3)C3CCCN(S(=O)(=O)C4CC4)C3)[C@@H](C)C2)CC1` (stereo partly shown) [Example 5], for which the IC50 was 15 nM.

On to `Cc1ncnc(C)c1C(=O)N1CCC(C)(N2CCN(C(c3ccccc3)C3CCCN(S(=O)(=O)C4CC4)C3)[C@@H](C)C2)CC1` (stereo partly shown) [Example 6], for which the IC50 is 0.7 nM.
